Data set [1] can be described thus: Plasma hydrolysis of nicotinamide riboside analogs to NR (incubation with rat plasma, LC/MS/MS). The note with it: 10 mM, incubated 30 min at 37° C. The data set is classed as in vitro ADME. The protocol: Compounds were diluted with rat plasma to a concentration of 10 millimolar (mM). Samples were incubated for 30 min at 37° C., taking 50 microL aliquots for analysis at 0 and 30 min. The aliquots were loaded onto a deep 96 well plate, then 350 microL of 0.1% (v:v) formic acid in acetonitrile was added to each well. The plate was covered and sealed to prevent evaporation, then it was placed on an orbital plate shaker set to 800-900 rps for 5-10 minutes. Next, the plate was centrifuged at around 3000 rpm for 5 min to provide a clear supernatant. For LC/MS/MS analysis, 200 microL of supernatant from each well was transferred onto a clean plate, which was subsequently capped and placed into an autosampler.
LCMS Conditions. For each well, a 10 microL sample was injected via autosampler onto a Chromolithe Performance, RP-18e (100×4.6 mm) column, and eluted with a binary gradient. Solvent A=0.1% formic acid, 0.1% N,N-dibutyl-N-methylamine (DBME) in 2 mM aqueous ammonium acetate (1:1:1000 v:v:v). Solvent B=0.1% formic acid in acetonitrile (1:1000 v:v). The solvent gradient was as follows: 0-0.22 min, 95:5 A:B; […], 95:5 A:B to 30:70 A:B (linear gradient); 5.05-6.05 min, 30:70 A:B; 6.05-6.60 min, 30:70 A:B to 95:5 A:B (linear gradient); 6.60-7.15 min, 95:5 A:B; stop elution at 7.15 min. Nicotinamide riboside eluted at approximately 1.7 min. A triple-quadrupole mass spectrometer was employed for peak identification. The identity of the analyte was confirmed by MS observation of a Q1 peak at m/z=255 (M)^+, and a Q3 peak at m/z=123.1 (M-C5H8O4)^+.
The results are shown in FIG. 3, with the release of free nicotinamide riboside measured using by HPLC-MS at 0, 30, and 60 minute time points (columns 5, 6, and 7 of table shown in FIG. 3). For each of NR esters in Table 3, except nicotinamide riboside tribenzoate, nicotinamide riboside was detected at the 30 minute time point.

In data set [2] the test system is HaCaT cells (a human keratinocyte cell line). Put plainly: Intracellular NAD measurement in HaCaT cells (ADPR cyclase enzymatic assay, absorbance 405 nm). The data set is classed as cell-based. The protocol:
HaCaT cells (AddexBio Technologies, San Diego, Calif., Passage 16-19) were grown in Medium DMEM/GlutMax (Life technologies, Grand Island, N.Y.) supplemented with 10% FBS (Life technologies) and Non-essential amino acids (NEAA, Life technologies) and then seeded in 12-well plates (Corning, Tewksbury, Mass.) with a density at 2×10^5 cells per well and 2 ml of culture medium in each well for overnight.
Stock solution of dihydronicotinamide riboside (NRH, GSK3008320A, GSK, RTP, NC) was prepared in ethanol at 100 mM (25.6 mg/ml) and stored at −20° C. Cells were treated with different concentrations of NRH for 3 hrs, washed twice with PBS containing 5 mM EDTA, and then subject to Nicotinamide adenine dinucleotide (NAD) measurement. In brief, acetonitrile (ACN) lysis buffer (Ammonium Acetate (50 mM) and 90% acetonitrile) was added to each well (200 μl/well) to lyse the cells at RT for 5-10 mins by gently rotating on a culture plate shaker at a low speed. Enzyme master mix (300 μM of 5-Amino-(3,4′-bipyridin)-6(1H)-one (Inamrinone) (Sigma-Aldrich), a substrate for ADP ribosyl cyclase (ADPR cyclase)) and 30 nM ADPR Cyclase (Sigma, St. Louis, Mo.), 7.5 μM of N-(2-fluoro-4-(methylsulfonyl)phenyl)-2-methyl-6-(thiazol-5-yl)isonicotinamide (a CD38 inhibitor) in 75 mM HEPES pH7 buffer (Life Technologies)) was added to the lysed cells (400 μl of enzyme master mix/well). Enzymatic reaction was incubated at RT for ˜30 min. At the end of incubation, the supernatant (200 μl) of the reaction solution from each well was transferred to each well of a 96-well plate and absorbance was read twice in the 96-well plate at 405 nm using a plate reader (Spectra Maxplus, Molecular Devices, Sunnyvale, Calif.). A mixture of enzyme master mix and ACN extraction solution at 2:1 ratio was used as a blank reference. NAD (Sigma) was used as a positive control.
HaCaT cells were grown as described in example 23 in the regular cell culture DMEM medium as described earlier or in the Epilife medium without nacinamide (Life Technologies). Cells were treated with different concentrations of NRH or niacinamide (NIA, DSM nutritional products) for 3 hrs, washed twice with PBS containing 5 mM EDTA, and then subject to Nicotinamide adenine dinucleotide (NAD) measurement as described in example 23. A mixture of enzyme master mix and ACN extraction solution at 2:1 ratio for a blank reference. NAD (Sigma) was used as a positive control. […] Both the CD38 inhibitor and Niacinamide increased NAD in the HaCaT cells cultured in the Vit B3 depleted culture medium, and the induction of NAD by niacinamide was dose-dependent (solid bars). However, the induction of NAD by niacinamide (highest at ˜1.5 fold) was low compared to those by NRH. Therefore, NRH is a stronger NAD inducer compared to a CD38 inhibitor or Niacinamide.
HaCaT cells were grown in regular culture media as described in example 1 and seeded in 12-well plates with density at 2×10^5 cells per well and 1 ml of culture medium in each well. NRH stock solution was prepared in ethanol at 100 mM (25.6 mg/ml) and stored at −20° C. Stock solutions of NRH esters were made at 50 mM in DMSO (see FIG. 9B for compound info). Cells were treated with NRH esters and NRH at 150 μM for 6 and 16 hrs, washed twice with PB S containing 5 mM EDTA, and then subject to Nicotinamide adenine dinucleotide (NAD) measurement as described in example 23.
HaCaT cells were grown in regular culture media as described above and seeded in 12-well plates with density at 2×10^5 cells per well and 1 ml of culture medium in each well. NRH stock solution was prepared in ethanol at 100 mM (25.6 mg/ml) and stored at −20° C. NRH (200 μM) was used as a positive control. Because of the possible solubility issue related to NRH monoC16, fatty acid-free bovine serum albumin (defatted BSA, Sigma) was used as a carrier for the compound. NRH monoC16 stock solution (100×) was complexed with defatted BSA ([…]) prior to the treatment, resulting in a NRH monoC16 stock solution (10 ×). […]

Data set [3] in a line: Gravimetric Vapor Sorption (GVS). It counts as physicochemical. The note with it: 90% RH, 25° C. The protocol:
Gravimetric Vapor Sorption (GVS): Samples were analyzed using a VTI corporation (now part of TA Instruments) SGA-100 with Cahn microbalance equipped with quartz sample and reference pans. Samples were dried in the SGA-100 under dry nitrogen for 5 hours at 25° C. followed by a moisture absorption step ramp from 5% relative humidity (RH) to 95% or 90% RH followed by a desorption step ramp back to 5% or 10% RH (all steps at 25° C.). The samples were held at each % RH step for 4 hours.

Structures can show the parent of a compound that is named as a salt.

On to `CCCCC(=O)OC[C@H]1O[C@@H]([n+]2cccc(C(N)=O)c2)[C@H](OC(=O)CCCC)[C@@H]1OC(=O)CCCC` [1-((2R,3R,4R,5R)-3,4-bis(pentanoyloxy)-5-((pentanoyloxy)methyl)tetrahydrofuran-2-yl)-3-carbamoylpyridin-1-ium chloride], for which the “conversion to free nicotinamide riboside” value in data set [1] is on record as “converted to free nicotinamide riboside to a significant degree”. In the case of `Cc1cc(C(=O)Nc2ccc(S(C)(=O)=O)cc2F)cc(-c2cncs2)n1` [CD38 inhibitor, N-(2-fluoro-4-(methylsulfonyl)phenyl)-2-methyl-6-(thiazol-5-yl)isonicotinamide, reference compound], the NAD elevation entry in data set [2] (HaCaT in DMEM medium with Vit B3, highest tested doses, 3 hrs) is listed as “did not lead to NAD elevation”. Also, in data set [2] (HaCaT in Vit B3 depleted culture medium, 3 hrs), the NAD level entry is given as “increased NAD”. With `CCCCCCCCCCCC(=O)OC[C@H]1O[C@@H]([n+]2cccc(C(N)=O)c2)[C@H](O)[C@@H]1O.O=C([O-])C(F)(F)F` [NR+ monododecanoate, nicotinamide riboside 5′-monododecanoate], in data set [1], the “conversion to free nicotinamide riboside” value is on record as “converted to free nicotinamide riboside to a significant degree”. The same measure, in the same setting: as for `CCCCCC(=O)OC[C@H]1O[C@@H]([n+]2cccc(C(N)=O)c2)[C@H](O)[C@@H]1O` [NR+ monohexanoate, 3-carbamoyl-1-((2R,3R,4S,5R)-5-((hexanoyloxy)methyl)-3,4-dihydroxytetrahydrofuran-2-yl)pyridin-1-ium 2,2,2-trifluoroacetate], the entry is “converted to free nicotinamide riboside to a significant degree”; as for `CCCCCCCCC(=O)OC[C@H]1O[C@@H]([n+]2cccc(C(N)=O)c2)[C@H](O)[C@@H]1O` [NR+ monononanoate, 3-carbamoyl-1-((2R,3R,4S,5R)-3,4-dihydroxy-5-((nonanoyloxy)methyl)tetrahydrofuran-2-yl)pyridin-1-ium 2,2,2-trifluoroacetate], “converted to free nicotinamide riboside to a significant degree”. With `CCCCCCCC/C=C\CCCCCCCC(=O)OC[C@H]1O[C@@H]([n+]2cccc(C(N)=O)c2)[C@H](O)[C@@H]1O` [NR+ monooleate, 3-carbamoyl-1-((2R,3R,4S,5R)-3,4-dihydroxy-5-((oleoyloxy)methyl)tetrahydrofuran-2-yl)pyridin-1-ium 2,2,2-trifluoroacetate], in data set [1], the “conversion to free nicotinamide riboside” value was “converted to free nicotinamide riboside to a significant degree”. Moreover, the “appearance of treated cells (potential cytotoxicity)” value in data set [2] (HaCaT, 150 μM) is on record as “appeared unhealthy”. On to `CCCCC(=O)OC[C@H]1O[C@@H]([n+]2cccc(C(N)=O)c2)[C@H](O)[C@@H]1O` [NR+ monopentanoate, 3-carbamoyl-1-((2R,3R,4S,5R)-3,4-dihydroxy-5-((pentanoyloxy)methyl)tetrahydrofuran-2-yl)pyridin-1-ium 2,2,2-trifluoroacetate], for which, in data set [1], the “conversion to free nicotinamide riboside” value was “converted to free nicotinamide riboside to a significant degree”.

For `CCCCCCCCCCC(=O)OC[C@H]1O[C@@H]([n+]2cccc(C(N)=O)c2)[C@H](O)[C@@H]1O` [NR+ monoundecanoate, nicotinamide riboside 5′-monoundecanoate], the “conversion to free nicotinamide riboside” value in data set [1] is recorded as “converted to free nicotinamide riboside to a significant degree”. For the molecule `CCCCCC(=O)OCC1O[C@@H]([n+]2cccc(C(N)=O)c2)[C@H](OC(=O)CCCCC)[C@@H]1OC(=O)CCCCC` (stereo partly shown) [NR+ trihexanoate TFA-], the “conversion to free nicotinamide riboside” value in data set [1] is recorded as “converted to free nicotinamide riboside to a significant degree”. As to `CCCCCCCCCC(=O)OC[C@H]1O[C@@H](N2C=CCC(C(N)=O)=C2)[C@H](O)[C@@H]1O` [NRH monodecanoate, nicotinamide riboside hydride 5′-monodecanoate], the “conversion to free nicotinamide riboside” value in data set [1] is recorded as “converted to free nicotinamide riboside to a significant degree”.

Turning to `CCCCCCCCCCCCCC(=O)OC[C@H]1O[C@@H](N2C=CCC(C(N)=O)=C2)[C@H](O)[C@@H]1O` [NRH monotetradecanoate, ((2R,3S,4R,5R)-5-(3-carbamoylpyridin-1 (4H)-yl)-3,4-dihydroxytetrahydrofuran-2-yl)methyl tetradecanoate], in data set [1], the “conversion to free nicotinamide riboside” value is “converted to free nicotinamide riboside to a significant degree”. Same read-out and setting: as for `CCOC(=O)OC[C@H]1O[C@@H](N2C=CCC(C(N)=O)=C2)[C@H](OC(=O)OCC)[C@@H]1OC(=O)OCC` [NRH triethylcarbonate, ((2R,3R,4R,5R)-5-(3-carbamoylpyridin-1(4H)-yl)-3,4-bis((ethoxycarbonyl)oxy)-tetrahydrofuran-2-yl)methyl ethylcarbonate], the entry is “converted to free nicotinamide riboside to a significant degree”; as for `NC(=O)c1ccc[n+]([C@@H]2O[C@H](COP(=O)([O-])O)[C@@H](O)[C@H]2O)c1` [Nic mononucleotide, nicotinamide mononucleotide, reference compound], “some amount of conversion to free nicotinamide riboside”. On to `CCCCCC(=O)OC[C@H]1O[C@@H](N2C=CCC(C(N)=O)=C2)[C@H](O)[C@@H]1O` [mono C6-NRH derivative, nicotinamide riboside hydride 5′-monohexanoate], for which the “GVS weight gain from the dried state” value in data set [3] is recorded as “approximately 5%”.
